Measured values reported in article PMC3775761, “Structure-Activity Relationships of FMRF-NH2 Peptides Demonstrate A Role for the Conserved C Terminus and Unique N-Terminal Extension in Modulating Cardiac Contractility” (PLoS ONE, 2013).
Like-named read-outs stand apart in the source and are kept apart here.

Legend:
[1] = test system: FMRFa-R; details: expressed FMRFa-R protein, cited from earlier work
Method: In contrast, when the small, non-aromatic residue A was substituted for F, strong contacts which anchored FMRF-NH2 in the FMRFa-R binding pocket were lost, which substantially weakened ligand-receptor interactions (Figure 5, Tables 5 and 6). In addition, the F ... || Next, the effect of the analog SDNAMRF-NH2 was measured on heart rate at 1 µM. SDNAMRF-NH2 increased adult heart rate by 48±10%, a significant effect similar to SDNFMRF-NH2 (Figure 12, Table 14). The effect of the peptide analog was analyzed in adult because it is a developmental stage in which a robust response occurs which thus allows for subtle changes to be observed. […] Past studies analyzed the effects of some or all of these peptides in a bioassay; yet no report to date investigated th ...

[2] = test system: adult, larval, and pupal heart; assay: in vivo semi-isolated heart rate assay; design: species or system Drosophila melanogaster; details: peptide 1 µM; for % increase in heart rate, Adult: adult heart (1 day adults); for % increase in heart rate, Adult / % increase in heart rate, Larval / % increase in heart rate, Pupal: maximum response within 10-minute recording, mean ± S.E.M., n≥6, basal heart rate = 100%; for % increase in heart rate, Larval: larval heart (wandering 3rd instar larvae); for % increase in heart rate, Pupal: pupal heart (white prepupae)
Method: D. melanogaster Oregon R strain flies were maintained on cornmeal molasses media at 24°C under a 12 hour light/dark cycle. Animals analyzed were wandering 3rd instar larvae, white prepupae, and 1 day adults. The effects of peptides and physiological saline, the carrier, were measured on both females and males; no sex-specific response was observed. The in vivo semi-isolated heart rate assays were performed according to a previously reported protocol. The rate of heart contractions for each animal was measured prior to application of a peptide (1 µM) or saline, the carrier, to provide a measure of basal rate. Animals (n≥6) were used only once. During and after delivery of the peptide or saline, contractions were continuously recorded for a 10-minute time period. The data analyzed were the maximum responses within the 10-minute recording period reported as mean values ± S.E.M. Data are reported as % basal heart rate where the frequency of contractions before application of peptide or saline is considered a measure of the baseline or basal level. Effects of peptides were compared to saline using Single Factor ANOVA with significance set at p ≤ 0.01; a peptide was considered to be active if its effects were statistically different from saline. The statistical outcomes were identical when calculated using two different data packages, Microsoft Excel and IBM SPSS.

[3] = Chinese hamster ovary cells, read-out: EC50, ligand-FMRFa-R binding
[4] = read-out: EC50, peptides bind FMRFa-R

Substance | EC50 [1, 3] [nM] | EC50 [1, 4] [nM] | % increase in heart rate, Adult [2] [%] | % increase in heart rate, Larval [2] [%] | % increase in heart rate, Pupal [2] [%] | heart rate return to baseline ([2]; pupal heart, recording period)
AMRF-NH2 [analog replacing F1 with A] | 3220 | – | – | – | – | –
DPKQDFMRF-NH2 [D. melanogaster FMRF-NH2 peptide encoded in dFMRFa] | – | 2 | 44±11 | 20±5 | 21±5 | –
FMRF-NH2 [conserved C-terminal tetrapeptide; molluscan cardioexcitatory tetrapeptide] | 28 | – | 37±11 | 28±8 | 17±4 | –
PDNFMRF-NH2 [D. melanogaster FMRF-NH2 peptide encoded in dFMRFa] | – | 1.8 | 51±12 | 26±5 | 27±7 | did not return to baseline within the recording period
SDNAMRF-NH2 [designed analog of SDNFMRF-NH2 with F to A substitution] | 102 | – | 48±10 | – | – | –
SDNFMRF-NH2 [D. melanogaster FMRF-NH2 peptide encoded in dFMRFa] | 1.9 | – | 39±11 | 24±8 | 15±4 | –
SPKQDFMRF-NH2 [D. melanogaster FMRF-NH2 peptide encoded in dFMRFa] | – | 2.5 | 32±8 | 23±6 | 12±1 | –
TPAEDFMRF-NH2 [D. melanogaster FMRF-NH2 peptide encoded in dFMRFa] | – | 2.8 | 40±2 | 20±4 | 26±8 | –
YMRF-NH2 [analog in which Y replaced F1] | 31 | – | – | – | – | –
